Source: the CheMixHub viscosity set

Test: xn = mol fraction of the nth substance listed

CCC(C)CO (stereo not drawn) + COc1ccccc1
viscosity [mPa·s], 101.33 kPa
Conditions	x2 = 0.1005	x2 = 0.2004	x2 = 0.3003	x2 = 0.4012	x2 = 0.5001	x2 = 0.6005	x2 = 0.6996	x2 = 0.8001	x2 = 0.9003
303.15 K	2.761	2.126	1.665	1.347	1.149	1.032	0.968	0.932	0.912
313.15 K	2.026	1.601	1.296	1.084	0.952	0.868	0.824	0.803	0.794
323.15 K	1.552	1.246	1.022	0.872	0.784	0.739	0.718	0.707	0.698

COC(=O)c1ccccc1O + CS(C)=O
303.15 K, 101 kPa
Conditions	viscosity [mPa·s]
x1 = 0.1215	1.932
x1 = 0.1918	2.13
x1 = 0.2697	2.186
x1 = 0.3567	2.283
x1 = 0.5628	2.356
x1 = 0.6882	2.38
x1 = 0.8323	2.403

O=C(O)/C=C\C(=O)O + C[N+](C)(C)CCO.[Cl-]
viscosity [mPa·s], 101.3 kPa
Conditions	293.2 K	303.2 K	313.2 K
x2 = 0.49	–	8065	4196
x2 = 0.597	7984	4891	2579
x2 = 0.669	4183	2672	1488

Cc1cccc([N+](=O)[O-])c1 + Cc1ccc(C)cc1
308.15 K, 101.33 kPa
Conditions	viscosity [mPa·s]
x2 = 0.1004	1.322
x2 = 0.2046	1.122
x2 = 0.2963	1.004
x2 = 0.4016	0.908
x2 = 0.4954	0.846
x2 = 0.6076	0.768
x2 = 0.7023	0.706
x2 = 0.8036	0.649
x2 = 0.8975	0.6

Cc1ccccc1[N+](=O)[O-] + Cc1ccc(C)cc1
308.15 K, 101.33 kPa
Conditions	viscosity [mPa·s]
x2 = 0.1044	1.342
x2 = 0.2016	1.153
x2 = 0.2968	1.034
x2 = 0.4024	0.942
x2 = 0.4938	0.879
x2 = 0.6032	0.81
x2 = 0.6951	0.754
x2 = 0.8009	0.681
x2 = 0.8955	0.624

Cc1cccc([N+](=O)[O-])c1 + Cc1cccc(C)c1
308.15 K, 101.33 kPa
Conditions	viscosity [mPa·s]
x2 = 0.1017	1.33
x2 = 0.2062	1.133
x2 = 0.3032	1.014
x2 = 0.4055	0.926
x2 = 0.5001	0.861
x2 = 0.6028	0.785
x2 = 0.6999	0.72
x2 = 0.8043	0.653
x2 = 0.9007	0.59

Cc1ccccc1[N+](=O)[O-] + Cc1cccc(C)c1
308.15 K, 101.33 kPa
Conditions	viscosity [mPa·s]
x2 = 0.1014	1.358
x2 = 0.2022	1.154
x2 = 0.3044	1.027
x2 = 0.4036	0.938
x2 = 0.499	0.87
x2 = 0.6052	0.792
x2 = 0.6913	0.735
x2 = 0.8068	0.654
x2 = 0.8993	0.596

CCCCCN + Cc1ccccc1
303.15 K, 101 kPa
Conditions	viscosity [mPa·s]
x2 = 0.1128	0.556
x2 = 0.2313	0.5323
x2 = 0.3808	0.5104
x2 = 0.4933	0.5008
x2 = 0.5377	0.4969
x2 = 0.6473	0.4932
x2 = 0.7388	0.4938
x2 = 0.8447	0.4984
x2 = 0.9229	0.5071

CCOC(=O)c1ccccc1 + Cc1ccccc1
viscosity [mPa·s], 101 kPa
Conditions	298.15 K	303.15 K	313.15 K
x1 = 0.0488	–	0.577	0.504
x1 = 0.1223	–	0.652	0.562
x1 = 0.1524	0.6845	–	–
x1 = 0.1712	–	0.701	0.601
x1 = 0.2201	–	0.749	0.637
x1 = 0.2923	–	0.823	0.694
x1 = 0.3425	–	0.875	0.734
x1 = 0.3548	0.9076	–	–
x1 = 0.4176	–	0.954	0.795
x1 = 0.4918	–	1.035	0.858
x1 = 0.5675	–	1.123	0.926
x1 = 0.63	1.279	–	–
x1 = 0.6436	–	1.22	1.001
x1 = 0.7352	1.452	–	–
x1 = 0.7452	–	1.359	1.109
x1 = 0.8194	–	1.473	1.198
x1 = 0.8445	1.655	–	–
x1 = 0.8969	–	1.605	1.312
x2 = 0.2273	1.495	–	–
x2 = 0.5945	0.939	–	–
x2 = 0.8392	0.679	–	–

Cc1cccc([N+](=O)[O-])c1 + Cc1ccccc1
303.15 K, 101.33 kPa
Conditions	viscosity [mPa·s]
x1 = 0.201	0.63
x1 = 0.406	0.8
x1 = 0.603	1
x1 = 0.8	1.33

Cc1cccc([N+](=O)[O-])c1 + Cc1ccccc1C
308.15 K, 101.33 kPa
Conditions	viscosity [mPa·s]
x2 = 0.1044	1.384
x2 = 0.2068	1.211
x2 = 0.2995	1.102
x2 = 0.4028	1.01
x2 = 0.5015	0.944
x2 = 0.6123	0.867
x2 = 0.7055	0.81
x2 = 0.8268	0.742
x2 = 0.9132	0.698

Cc1ccccc1[N+](=O)[O-] + Cc1ccccc1C
308.15 K, 101.33 kPa
Conditions	viscosity [mPa·s]
x2 = 0.1023	1.548
x2 = 0.2014	1.392
x2 = 0.3006	1.262
x2 = 0.4018	1.143
x2 = 0.5041	1.027
x2 = 0.6102	0.928
x2 = 0.7028	0.85
x2 = 0.8056	0.773
x2 = 0.9008	0.709

CCOC(=O)c1ccccc1 + Cc1ccccc1Cl
viscosity [mPa·s], 101 kPa
Conditions	303.15 K	313.15 K
x1 = 0.0262	0.899	0.753
x1 = 0.0785	0.926	0.772
x1 = 0.1304	0.952	0.793
x1 = 0.2081	0.996	0.826
x1 = 0.2594	1.022	0.846
x1 = 0.3343	1.067	0.881
x1 = 0.3851	1.099	0.906
x1 = 0.4613	1.149	0.945
x1 = 0.5356	1.208	0.99
x1 = 0.6108	1.274	1.041
x1 = 0.709	1.375	1.12
x1 = 0.8085	1.497	1.215
x1 = 0.9045	1.635	1.323

C1=CCCCC1 + ClC(Cl)(Cl)Cl
303.15 K, 101 kPa
Conditions	viscosity [mPa·s]
x1 = 0.1014	0.875
x1 = 0.2018	0.839
x1 = 0.3213	0.8
x1 = 0.4018	0.775
x1 = 0.5046	0.74
x1 = 0.5562	0.722
x1 = 0.6526	0.688
x1 = 0.7514	0.653
x1 = 0.9049	0.603
